Square brackets hold non-standard residues; d marks the D form. Peptide text beside a SMILES is read from it. * marks the point of attachment. pY = N[C@@H](Cc1ccc(OP(=O)(O)O)cc1)C(=O)O; NHPhenethyl = c1ccc(CCN*)cc1

T1 sequence (P12931 151-248 limits assumed): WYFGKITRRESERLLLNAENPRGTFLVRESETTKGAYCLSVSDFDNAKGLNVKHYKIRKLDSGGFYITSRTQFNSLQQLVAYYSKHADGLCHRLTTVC

One assay addresses T1, Src SH2 (Homo sapiens, UniProt P12931).
T1 construct: glutathione-S-transferase(GST)-Src SH2 fusion protein
Description: Inhibition of 125I-phosphopeptide binding to immobilized Src SH2. Conditions: IC50, SRC SH2 Binding, competitive 125I-phosphopeptide displacement, GST-Src SH2 fusion protein, pH 7.5, room temperature, 20 minutes. Here is the method:
The binding affinities of compounds of the present invention to Src SH2 was determined using a competitive radiolabeled phosphopeptide displacement assay.
Binding was performed at room temperature for 20 minutes while continuously inverting the plate. […] Results are expressed as IC50 values in Table 1 below.
Consider `CC(=O)N[C@@H](Cc1ccc(OP(=O)(O)O)cc1)C(=O)N[C@@H](CCC(=O)O)C(=O)NCCCCC(C)C` (relative stereo) [Example 37, [S -(R*,R*)]-4-[2-Acetylamino-3-(4-phosphonooxy-phenyl)-propionylamino]-4-(5-methyl-hexylcarbamoyl)-butyric acid], for which the IC50 is 6.7 µM.

Regarding `CC(=O)N[C@@H](Cc1ccc(OP(=O)(O)O)cc1)C(=O)N[C@@H](CCC(=O)O)C(=O)N[C@@H](C)CC1CCCCC1` [Example 2, 4-[(S)-2-Acetylamino-3-(4-phosphonooxy-phenyl)-(S)-propionylamino]-4-(2-cyclohexyl-(S)-1-methylethylcarbamoyl)-butyric acid], the half-maximal inhibitory concentration (IC50) was determined as 2.4 µM.

Molecule `CC(=O)N[C@@H](Cc1ccc(OP(=O)(O)O)cc1)C(=O)N[C@@H](CCC(=O)O)C(=O)N(C)[C@@H](C)CC1CCCCC1` [Example 3] registered an IC50 of 2.3 µM.

As to `CNC(=O)N[C@@H](Cc1ccc(OP(=O)(O)O)cc1)C(=O)N[C@@H](CCC(=O)O)C(=O)N(C)CCCC1CCCCC1` [Example 7, [S-(R*,R*)]-4-[(3-Cyclohexyl-propyl)-methyl-carbamoyl]-4-[2-(3-methyl-ureido)-3-(4-phosphonooxy-phenyl)-propionylamino]-butyric acid], the IC50 was found to be 2 µM.

Turning to `CCCC[C@H](NC(=O)[C@H](Cc1ccc(OP(=O)(O)O)cc1)NC(C)=O)C(=O)N(C)CCCC1CCCCC1` [Example 9, [S-(R*,R*)]-Phosphoric acid mono-[4-(2-acetylamino-2-{1-[(3-cyclohexyl-propyl)-methyl-carbamoyl]-pentylcarbamoyl}-ethyl)-phenyl] ester], the half-maximal inhibitory concentration (IC50) worked out at 6.2 µM.

On to `CC(=O)N[C@@H](Cc1ccc(OP(=O)(O)O)cc1)C(=O)N[C@@H](CCC(=O)O)C(=O)NCCc1cccc2c1CCCC2` [Example 13, [S-(R* ,R*)]-4-[2-Acetylamino-3-(4-phosphonooxy-phenyl)-propionylamino]-4-[2-(5,6,7,8-tetrahydro-naphthalen-1-yl)-ethylcarbamoyl]-butyric acid], for which the IC50 stood at 4.4 µM.

The molecule `CC(=O)N[C@@H](Cc1ccc(OP(=O)(O)O)cc1)C(=O)N[C@@H](CCC(=O)O)C(=O)NCc1cccc2ccccc12` [Example 15, [S-(R*,R*)]-4-[2-Acetylamino-3-(4-phosphonooxy-phenyl)-propionylamino]-4-[(naphthalen-1-ylmethyl)-carbamoyl]-butyric acid] gave a concentration for half-maximal inhibition (IC50) of 7 µM.

`CC(=O)N[C@@H](Cc1ccc(OP(=O)(O)O)cc1)C(=O)N[C@@H](CCC(=O)O)C(=O)NCCc1ccccc1` [Example 16, [S-(R*,R*)]-4-[2-Acetylamino-3-(4-phosphonooxy-phenyl)-propionylamino]-4-phenethylcarbamoyl-butyric acid] (Ac-[pY]-Glu-NHPhenethyl): the IC50 turned out to be 9.8 µM.

`CC(=O)N[C@@H](Cc1ccc(OP(=O)(O)O)cc1)C(=O)N[C@@H](CCC(=O)O)C(=O)N(C)[C@@H](C)Cc1ccccc1` [Example 17, 4-[(S)-2-Acetylamino-3-(4-phosphonooxy-phenyl)-(S)-propionylamino]-4-[methyl-((S)-1-methyl-2-phenylethyl)-carbamoyl]-butyric acid] had a half-inhibitory concentration (IC50) of 3.2 µM.

The molecule `CC(=O)N[C@@H](Cc1ccc(OP(=O)(O)O)cc1)C(=O)N[C@@H](CCC(=O)O)C(=O)N[C@@H](C)Cc1ccccc1` [Example 18, 4-[(S)-2-Acetylamino-3-(4-phosphonooxy-phenyl)-(S)-propionylamino]-4-((S)-1-methyl-2-phenylethylcarbamoyl)-butyric acid] had a half-maximal inhibitory concentration (IC50) of 3.3 µM.

`CC(=O)N[C@@H](Cc1ccc(OP(=O)(O)O)cc1)C(=O)N[C@@H](CCC(=O)O)C(=O)N(C)CCCc1ccccc1` [Example 19, [S-(R*,R*)]-4-[2-Acetylamino-3-(4-phosphonooxy-phenyl)-propionylamino]-4-[methyl-(3-phenyl-propyl)-carbamoyl]-butyric acid] yielded a concentration for half-maximal inhibition (IC50) of 5.6 µM.

With `CC(=O)N[C@@H](Cc1ccc(OP(=O)(O)O)cc1)C(=O)N[C@@H](CCC(=O)O)C(=O)NCCc1ccc(C)cc1` [Example 22, [S-(R*,R*)]-4-[2-Acetylamino-3-(4-phosphonooxy-phenyl)-propionylamino]-4-(2-p-tolyl-ethylcarbamoyl)-butyric acid], the IC50 was 8.3 µM.

The molecule `COc1ccccc1CCN(C)C(=O)[C@H](CCC(=O)O)NC(=O)[C@H](Cc1ccc(OP(=O)(O)O)cc1)NC(C)=O` [Example 23, [S-(R*,R*)]-4-[2-Acetylamino-3-(4-phosphonooxy-phenyl)-propionylamino]-4-{[2-(2-methoxy-phenyl)-ethyl]-methyl-carbamoyl}-butyric acid] registered an IC50 of 6.2 µM.

Molecule `CC(=O)N[C@@H](Cc1ccc(OP(=O)(O)O)cc1)C(=O)N[C@@H](C)C(=O)N(CCCC(=O)O)CCCC1CCCCC1` [Example 25, [S-(R*,R*)]-4-[{2-[2-Acetylamino-3-(4-phosphonooxy-phenyl)-propionylamino}-propionyl]-(3-cyclohexylpropyl)-amino]-butyric acid] registered an IC50 of 7.1 µM.

On to `CC(=O)N[C@@H](Cc1ccc(OP(=O)(O)O)cc1)C(=O)N[C@@H](C)C(=O)N(CCCC(=O)O)CCCc1ccccc1` [Example 26, [S-(R*,R*)]-4-[{2-[2-Acetylamino-3-(4-phosphonooxy-phenyl)-propionylamino}-propionyl]-(3-phenyl-propyl)-amino]-butyric acid], for which the IC50 is 9.8 µM.

For `CC(=O)N[C@@H](Cc1ccc(OP(=O)(O)O)cc1)C(=O)N[C@@H](C)C(=O)N(CCCCC(=O)O)CCCc1ccccc1` [Example 27, [S-(R*,R*)]-5-[{2-[2-Acetylamino-3-(4-phosphonooxy-phenyl)-propionylamino]-propionyl}-(3-phenyl-propyl)-amino]-pentanoic acid], the half-maximal inhibitory concentration (IC50) was 8 µM.

In turn, `CCCCN(CCCc1ccccc1)C(=O)[C@H](C)NC(=O)[C@H](Cc1ccc(OP(=O)(O)O)cc1)NC(C)=O` [Example 28, [S-(R*,R*)]-Phosphoric acid mono-[4-(2-acetylamino-2-{1-[butyl-(3-phenyl-propyl)-carbamoyl]-ethylcarbamoyl}-ethyl)-phenyl] ester] gave an IC50 of 12 µM.

In turn, `CC(=O)N[C@@H](Cc1ccc(OP(=O)(O)O)cc1)C(=O)N[C@@H](CCC(=O)O)C(=O)NCCCc1ccc(OCC(=O)O)cc1` [Example 29, [S-(R*,R*)]-4-[2-Acetylamino-3-(4-phosphonooxy-phenyl)-propionylamino]-4-[3-(4-carboxymethoxy-phenyl)-propylcarbamoyl]-butyric acid] registered an IC50 of 8.3 µM.

`CC(=O)N[C@@H](Cc1ccc(OP(=O)(O)O)cc1)C(=O)N[C@@H](CCC(=O)O)C(=O)N1CCC[C@H]1Cc1ccccc1` [Example 30]: the IC50 worked out at 5.5 µM.

On to `CC(=O)N(C)C(Cc1ccc(OP(=O)(O)O)cc1)C(=O)N[C@@H](CCC(=O)O)C(=O)NCCCc1ccccc1` (stereo partly drawn) [Example 32, 4-[(RS)-2-(Acetyl-methyl-amino)-3-(4-phosphonooxy-phenyl)-(S)-propionylamino]-4-(3-phenylpropylcarbamoyl)-butyric acid], for which the IC50 was 9.2 µM.

`CS(=O)(=O)N[C@@H](Cc1ccc(OP(=O)(O)O)cc1)C(=O)N[C@@H](CCC(=O)O)C(=O)NCCCc1ccccc1` [Example 33, [S-(R*,R*)]-4-[2-Methanesulfonylamino-3-(4-phosphonooxy-phenyl)-propionylamino]-4-(3-phenyl-propylcarbamoyl)-butyric acid]: the half-maximal inhibitory concentration (IC50) amounted to 9.3 µM.

Molecule `CCC(C)CCCNC(=O)[C@H](CCC(=O)O)NC(=O)[C@H](Cc1ccc(OP(=O)(O)O)cc1)NC(C)=O` (stereo partly drawn) [Example 38, [S-(R*,R*)]-4-[2-Acetylamino-3-(4-phosphonooxy-phenyl)-propionylamino]-4-(4-methyl-hexylcarbamoyl)-butyric acid] gave an IC50 of 4.1 µM.

`NC(=O)c1cc(CNC(=O)c2ccc(OP(=O)(O)O)cc2)ccc1OCc1ccccc1` [Example 39, Phosphoric acid mono-[4-(4-benzyloxy-3-carbamoyl-benzylcarbamoyl)-phenyl] ester] came in with an IC50 of 9.7 µM.

For the molecule `Cc1cccc(COc2ccc(CNC(=O)c3ccc(OP(=O)(O)O)cc3)cc2C(N)=O)c1` [Example 40, Phosphoric acid mono-{4-[3-carbamoyl-4-(3-methyl-benzyloxy)-benzylcarbamoyl]-phenyl} ester], the IC50 amounted to 7 µM.

With `Cc1cc(C)cc(COc2ccc(CNC(=O)c3ccc(OP(=O)(O)O)cc3)cc2C(N)=O)c1` [Example 41, Phosphoric acid mono-{4-[3-carbamoyl-4-(3,5-dimethyl-benzyloxy)-benzylcarbamoyl]-phenyl} ester], the 50% inhibitory concentration (IC50) came to 6.6 µM.

Staying with this assay, now noted: competitive 125I-phosphopeptide displacement, GST-Src SH2 fusion protein, pH 7.5, room temperature, 20 minutes; read-out: IC50, SRC SH2 Binding.
Consider `CC(=O)N[C@@H](Cc1ccc(OP(=O)(O)O)cc1)C(=O)N[C@@H](CCC(=O)O)C(=O)NCCCc1ccccc1` [Example 14, [S-(R*,R*)]-4-[2-Acetylamino-3-(4-phosphonooxy-phenyl)-propionylamino]-4-(3-phenyl-propylcarbamoyl)-butyric acid], for which the IC50 was found to be 10 µM.

Turning to `CC(=O)N[C@@H](Cc1ccc(OP(=O)(O)O)cc1)C(=O)N[C@@H](Cc1ccc(O)cc1)C(=O)NCCCc1ccccc1` [Example 20, [S-(R*,R*)]-Phosphoric acid mono-(4-{2-acetylamino-2-[2-(4-hydroxy-phenyl)-1-(3-phenyl-propylcarbamoyl)-ethyl-carbamoyl]-ethyl}-phenyl) ester], the IC50 came out at 20 µM.

Staying with this assay, now noted: read-out: IC50, SRC SH2 Binding; competitive 125I-phosphopeptide displacement, GST-Src SH2 fusion protein, pH 7.5, room temperature, 20 minutes.
As to `COc1ccccc1CCNC(=O)[C@H](CCC(=O)O)NC(=O)[C@H](Cc1ccc(OP(=O)(O)O)cc1)NC(C)=O` [Example 21, [S-(R*,R*)]4-[2-Acetylamino-3-(4-phosphonooxy-phenyl)-propionylamino]-4-[2-(2-methoxy-phenyl)-ethylcarbamoyl]-butyric acid], the IC50 was 5.5 µM.

The values above are taken from US5922697A, “Compounds, compositions and methods for inhibiting the binding of proteins containing an SH2 domain to cognate phosphorylated proteins” (Warner-Lambert Company, priority 1998, dated 1999).
